For one series, the system named is Hepatitis C virus. Nature of the series: Antiviral activity against HCV genotype 1a H77c infected in human HuH7 cells after 3 days by luciferase reporter gene assay. It is filed as functional, cell-based, Hepacivirus hominis. Conditions: Huh-7, 72 h; call rule not given here. In general terms: A reporter such as luciferase makes a cellular process visible.
The nature of series [1]: (§1) Drug uptake in rat liver at 5 mg/kg, iv after 6 hrs. It is filed as ADME, organism-based. Details: dose 5 mg/kg, route intravenous. Conditions: liver, read-out: Drug uptake.
Series [2] can be described thus: (§2) Plasma concentration in rat at 5 mg/kg, iv after 6 hrs. Conditions: plasma. Format: ADME, organism-based. Also on record: dose 5 mg/kg, route intravenous.
The nature of series [3]: Clearance in rat after 6 hrs. It is filed as ADME, organism-based. Conditions: in vivo.
Series [4] can be described thus: Inhibition of HCV genotype 1b wild type NS5B polymerase using biotinylated oligo dT12 primer as substrate after 4 hrs in presence of [3H]UTP. Also on record: species or system Hepatitis C virus subtype 1b.
A short description of series [5]: (§3) Plasma concentration in rat at 10 mg/kg, po after 6 hrs. It is filed as ADME, organism-based. Also on record: dose 10 mg/kg, route oral. The settings on record: plasma.
Series [6] can be described thus: (§4) Drug uptake in rat liver 10 mg/kg, po after 6 hrs. Format: ADME, organism-based. Also on record: dose 10 mg/kg, route oral. The settings on record: liver, read-out: Drug uptake.
A short description of series [7]: Cytotoxicity against human HuH7 cells after 3 days by Alamar blue assay. It is filed as cell-based, Huh-7.
A short description of series [8]: Ratio of EC50 for HCV genotype 1a H77c replicon cells to IC50 for HCV genotype 1b wild type NS5B polymerase.
Series [9] deals with Liver. The description is as §1. Format: ADME, organism-based. Details: dose 5 mg/kg, route intravenous. Conditions: in vivo, 6 h, BLD = below limit of detection.
Series [10] deals with Plasma. The description is as §2. Details: dose 5 mg/kg, route intravenous. Conditions: in vivo, 6 h, BLD = below limit of detection. It is filed as ADME, organism-based.
In series [11] the test system is Plasma. The description is as §3. It is filed as ADME, organism-based. Details: dose 10 mg/kg, route oral. The settings on record: in vivo, 6 h, BLD = below limit of detection.
Series [12] relates to Liver. The series is described as §4. Conditions: in vivo, 6 h, BLD = below limit of detection. Also on record: dose 10 mg/kg, route oral. It is filed as ADME, organism-based.
Series [13] is described as follows: Permeability of the compound at pH 7.4 by PAMPA. The settings on record: read-out: permeability. It is filed as physicochemical. A general note: In PAMPA a lipid-coated filter parts donor from acceptor wells.
Series [14] in a line: Cytotoxicity against human HuH7 cells after 4 hrs by CellTitre-Blue assay. It is filed as cell-based, Huh-7.
Series [15] can be described thus: Half life in dog liver microsomes. It is filed as ADME, Canis lupus familiaris.
The nature of series [16]: Half life in monkey liver microsomes. Format: ADME, Macaca mulatta. The settings on record: rhesus monkey.
The nature of series [17]: Permeability of the compound at pH 5.5 by PAMPA. It is filed as physicochemical. Conditions: read-out: permeability.
Series [18] in a line: Inhibition of CYP (unknown origin). It is filed as ADME. Conditions: human.
In another series the test system is Liver microsome. Nature of the series: Metabolic stability in human liver microsomes. Format: ADME. (In general: Liver microsomes are a subcellular fraction often used to study metabolism.)

This is an account of results in ChEMBL document CHEMBL3232986, “Identification of a novel series of potent HCV NS5B Site I inhibitors” (Bioorg Med Chem Lett, 2014).

Structures are written as SMILES.

What is called EC50 is the concentration giving half of the maximal effect. For orientation: clearance means the rate of elimination divided by the concentration. Broadly, the IC50 is the point on the concentration scale where inhibition reaches its midpoint. By CC50 is commonly meant the concentration at which the toxic effect on the cells reaches its halfway point. Compound `COc1ccc2c(c1)[C@@H]1C[C@]1(C(=O)N1CC34COCC3(CN(C)C4)C1)Cn1c-2c(C2CCCCC2)c2ccc(C(=O)NS(=O)(=O)C(C)C)cc21` (some centres undefined) showed a concentration for a half-maximal effect (EC50) with Hepatitis C virus of 0.001 µM. Besides, the concentration at 6 h in [1] came out at 0.052 µM; in series [2] it was 0.006 µM; in series [5], 0.002 µM; in series [6], 0.038 µM. For the same compound, the clearance in series [3] was 1.62 L/h/kg. Further, the IC50 in [4] is 0.004 µM. In [7], this compound had a half-maximal cytotoxic concentration (CC50) at 72 h of 14 µM.

Turning to `COc1ccc2c(c1)[C@@H]1C[C@]1(C(=O)N1CC34COCC3(CN(C(C)=O)C4)C1)Cn1c-2c(C2CCCCC2)c2ccc(C(=O)NS(=O)(=O)N(C)C)cc21` (some centres undefined), in the series on Hepatitis C virus, the 50% effective concentration (EC50) amounted to 0.008 µM. For the same compound, the Ratio in series [8] is recorded as 4. The Drug uptake entry with Liver [9] and in the series with Liver [12] was “BLD” throughout. Besides, the Cp entry with Plasma [10] and in the series on Plasma [11] was “BLD” throughout. In series [3], the clearance came out at 1.14 L/h/kg. Besides, the IC50 in series [4] came to 0.002 µM. Also, the CC50 at 72 h in series [7] was 24 µM.

`CNC(=O)N1CC23COCC2(C1)CN(C(=O)[C@]12C[C@H]1c1cc(OC)ccc1-c1c(C4CCCCC4)c4ccc(C(=O)NS(=O)(=O)N(C)C)cc4n1C2)C3` (some centres undefined): the half-maximal effective concentration (EC50) in the series on Hepatitis C virus stood at 0.086 µM. Besides, in series [8], the Ratio came to 43. Moreover, the Papp in [13] came out at 37 nm/s. For the same compound, the concentration for half-maximal inhibition (IC50) in series [4] was 0.002 µM. The same compound yielded a half-maximal cytotoxic concentration (CC50) at 4 h in series [14] of 96 µM.

The term half-life denotes the time in which the quantity being followed falls by half. In the series on Hepatitis C virus, `COc1ccc2c(c1)[C@@H]1C[C@]1(C(=O)N1CC34CCC3(CN(C(=O)N(C)C)C4)C1)Cn1c-2c(C2CCCCC2)c2ccc(C(=O)NS(=O)(=O)C(C)C)cc21` (some centres undefined) gave an EC50 of 0.012 µM. Further, the half-inhibitory concentration (IC50) in series [4] is 0.003 µM. In addition, the half-life in series [15] turned out to be 22 min; in series [16] it was 24 min. Moreover, it took 16 µM to reach half-maximal cytotoxicity in series [14] (CC50 at 4 h).

Consider `COc1ccc2c(c1)[C@@H]1C[C@]1(C(=O)N1CC34CCC3(CN(C(=O)N3CCOCC3)C4)C1)Cn1c-2c(C2CCCCC2)c2ccc(C(=O)NS(=O)(=O)N(C)C)cc21` (some centres undefined), for which a half-maximal effect in the series with Hepatitis C virus (EC50) was put at 0.015 µM. In addition, the Papp worked out at 113 nm/s in [17] and 259 nm/s in series [13]. In addition, in [4], the half-maximal inhibitory concentration (IC50) was found to be 0.002 µM. The compound also yielded a half-maximal cytotoxic concentration (CC50) at 4 h in [14] of 21 µM.

Turning to `COc1ccc2c(c1)[C@@H]1C[C@]1(C(=O)N1CC34CCC3(C1)CN(S(=O)(=O)C(C)C)C4)Cn1c-2c(C2CCCCC2)c2ccc(C(=O)NS(=O)(=O)N(C)C)cc21` (some centres undefined), in the series on Hepatitis C virus, the EC50 is 0.006 µM. The “inhibition (INH)” value in series [18] was “Active”. In addition, the concentration for half-maximal inhibition (IC50) in [4] amounted to 0.003 µM. It took 5 µM to reach half-maximal cytotoxicity in series [14] (CC50 at 4 h).

In turn, `CCOCCN1CC23CCC2(C1)CN(C(=O)[C@]12C[C@H]1c1cc(OC)ccc1-c1c(C4CCCCC4)c4ccc(C(=O)NS(=O)(=O)C(C)C)cc4n1C2)C3` (some centres undefined) had an EC50 with Hepatitis C virus of 0.015 µM. The Stability entry with Liver microsome is reported as “Unstable”. In series [14], this compound registered a CC50 at 4 h of 10 µM.
